# “Also recorded” adds a separate entry of the source. Where a name gives a salt, the structure may show the parent alone.
# What was measured:
# [1] = system: rats; settings: rats / rodents; cited from earlier work
# [2] = system: Dbh +/- and Dbh -/- mice; assay: Elevated plus maze (EPM), cocaine-induced anxiety, Dbh mice; format: in vivo; settings: for percent open arm time in EPM after cocaine (cocaine-induced anxiety): antagonist i.p. 10 min prior to cocaine 10 mg/kg i.p., propranolol 5, prazosin 0.5, yohimbine 2.5 mg/kg; for percent open time in EPM, antagonist alone: same doses, no cocaine, tested 20 minutes later, vs saline-treated; for percent open arm time in EPM after cocaine: disulfuram 3x200 mg/kg i.p. two hours apart, cocaine 10 mg/kg i.p. 20 min before test
# Description: Male and female Dbh +/− and −/− mice (aged 2 to 5 months) were individually housed on a reversed light cycle (lights on at 19:00, lights off at 7:00), and were allowed a minimum of two weeks to habituate to the new lighting conditions after moving from normal light cycle (lights on at 7:00, lights off at 19:00). Food and water were available ad libitum throughout the course of the study. Data from male and female mice were combined, since there were no detectable gender differences. Dbh mice were generated as described (15) and maintained on a mixed C57Bl6/J and 129SvEv background. Dbh +/− mice were used as controls, because they have normal brain catecholamine levels and are behaviorally identical to wild-type (Dbh +/+) mice (14-16). Three-month old male and female C57BL6/J mice (Jackson Labs, Bar Harbor, […].) were also used to generalize the findings from these experiments to a different strain of wild-type mouse. Housing, handling, and testing conditions for these animals were identical to those used in experiments with Dbh +/− mice.
# Behavioral testing The EPM apparatus consisted of two open arms and two enclosed arms arranged in a plus orientation. The arms were elevated 30 inches above the floor, with each arm projecting 12 inches from the center. Because rodents naturally prefer dark, enclosed compartments, a greater willingness to explore the open, well-lit arms is believed to represent a decrease in the animal's anxiety. This interpretation has been validated by the efficacy of known anxiolytic and anxiogenic treatments in this paradigm (Paine et al., (2002) Behavioural Pharmacol. 13: […]; Gorman & Dunn (1993) Pharmacol. Biochem. & Behavior 45: 1-7; Pellow et al., (1985) J. Neurosci. Methods 14: 149-167; Johnston & File (1988) Pharmacol. Biochem. & Behavior 32: 151-156).
# In all experiments, cocaine was injected 20 minutes prior to behavioral testing as described by Yang and colleagues (Yang et al., (1992) Pharmacol. Biochem. & Behavior 41: 643-650). To begin each test, mice were placed in the EPM facing one of the open arms and allowed to freely explore the apparatus for five minutes, during which time their behavior was videotaped. Videotapes were later scored by an observer who was blind to genotype and treatment group. The measure used for analysis was the percentage of time spent exploring the open arms, which was calculated by dividing the time spent in the open arms by the combined time spent in open and closed arms. Because some drug treatments and genetic manipulations alter overall locomotor activity, it was important to use this percentage measurement as the dependent variable for analysis (Pellow et al., (1985) J. Neurosci. Methods 14: 149-167).
# Entry into an arm of the plus maze was defined as the animal placing all four paws in that particular compartment of the apparatus. All tests were run during the dark cycle, between 14:00 and 18:00. Mice were excluded from data analysis for any of the following reasons: if they jumped or fell off the maze after test had begun, if they had […] a seizure while on the testing apparatus, or if their open arm time was detected as an outlier using Grubb's test. Of 253 total mice tested, 10 were excluded from data analysis. Data were analyzed using independent samples t-tests, one-way ANOVA followed by Dunnett's post-hoc tests, or two-way ANOVA followed by Bonferroni post-hoc tests using Prism 4.0 for Macintosh. […]
# This dosing regimen is known to decrease NE by ˜70% in the mouse brain (Bourdelat-Parks et al., (2005) Psychopharmacol. 183(1): 72-80). Mice received cocaine (10 mg/kg, i.p. at 10 ml/kg, dissolved in 0.9% saline) or saline two hours after the final pretreatment injection, and behavioral testing took place 20 minutes later, as described above. […]
# [3] = molecular target: T1, DBH (Homo sapiens, UniProt P09172); parameters: host or cells: human subjects, in vivo; settings: humans; cited from earlier work
# T1 sequence (P09172 1-617): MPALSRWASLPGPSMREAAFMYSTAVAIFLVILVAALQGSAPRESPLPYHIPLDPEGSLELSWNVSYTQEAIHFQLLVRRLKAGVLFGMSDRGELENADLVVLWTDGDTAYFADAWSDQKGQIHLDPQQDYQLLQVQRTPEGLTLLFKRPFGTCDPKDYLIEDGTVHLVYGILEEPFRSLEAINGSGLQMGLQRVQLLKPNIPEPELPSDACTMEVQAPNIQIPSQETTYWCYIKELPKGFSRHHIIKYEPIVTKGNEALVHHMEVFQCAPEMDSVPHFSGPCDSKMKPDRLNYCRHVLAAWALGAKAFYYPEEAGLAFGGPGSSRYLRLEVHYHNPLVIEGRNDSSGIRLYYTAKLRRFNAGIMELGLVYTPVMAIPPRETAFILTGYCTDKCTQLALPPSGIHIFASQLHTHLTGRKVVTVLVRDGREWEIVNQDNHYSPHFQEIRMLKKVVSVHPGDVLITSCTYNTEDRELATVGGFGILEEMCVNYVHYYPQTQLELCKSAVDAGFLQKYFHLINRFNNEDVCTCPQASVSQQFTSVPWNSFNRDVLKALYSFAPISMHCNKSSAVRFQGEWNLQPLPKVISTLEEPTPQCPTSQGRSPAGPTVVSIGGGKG
# [4] = system: animal models; settings: cited from earlier work
# [5] = system: mice; assay: Cocaine-induced locomotion (ambulations in activity chambers); format: in vivo
# Protocol: Locomotor activity measurement: Experiments were conducted in an isolated behavior room between 1000 and 1600 hrs. Ambulations (consecutive beam breaks) were measured in transparent plexiglass cages (40×20×20 cm^3) placed into a rack with seven infrared photobeams spaced 5 cm apart, each end beam 5 cm from the cage wall (San Diego Instruments Inc., LaJolla, Calif.). Mice were placed in the activity chambers for 4 hr, injected with cocaine (5, 10, or 20 mg/kg i.p.; Sigma-Aldrich, St Louis, Mo.), and ambulations were recorded for an additional 2 hr. Data were analyzed by ANOVA followed by Bonferroni post-hoc tests. For the antagonist studies, saline, the 5-HT1A antagonist WAY100635 (0.03 mg/kg), the 5-HT2 antagonist ketanserin (0.3 mg/kg), the D1 antagonist SCH23390 (0.03 mg/kg), or the D2 antagonist eticlopride were injected i.p. 30 min prior to cocaine (20 mg/kg). […] All drugs were purchased from Sigma-Aldrich (St Louis, Mo.).
# Mice were implanted with minipumps for delivering either vehicle (50% DMSO, 0.9% NaCl or nepicastat (10 or 50 mg/kg/d). 3 weeks later, the mice were put in activity chambers, allowed to acclimate for 4 hrs, then injected with cocaine (10 mg/kg, i.p.) and ambulations measured for 2 additional hours, as shown in FIG. 8 (N=6 per group).
# Two hours later, the mice were put in activity chambers, allowed to acclimate for 4 hrs, injected with cocaine (20 mg/kg, i.p.) and ambulations measured for 2 additional hours. (FIG. 9) (N=8 per group).
# [6] = molecular target: T1, DBH; settings: cited from earlier work
# [7] = molecular target: T2, DBH (Mus musculus, UniProt Q64237); settings: three injections of 200 mg/kg i.p. spaced two hours apart; cited from earlier work
# T2 construct: host or cells: peripheral and central tissues of animals, in vivo
# T2 sequence (Q64237 1-622): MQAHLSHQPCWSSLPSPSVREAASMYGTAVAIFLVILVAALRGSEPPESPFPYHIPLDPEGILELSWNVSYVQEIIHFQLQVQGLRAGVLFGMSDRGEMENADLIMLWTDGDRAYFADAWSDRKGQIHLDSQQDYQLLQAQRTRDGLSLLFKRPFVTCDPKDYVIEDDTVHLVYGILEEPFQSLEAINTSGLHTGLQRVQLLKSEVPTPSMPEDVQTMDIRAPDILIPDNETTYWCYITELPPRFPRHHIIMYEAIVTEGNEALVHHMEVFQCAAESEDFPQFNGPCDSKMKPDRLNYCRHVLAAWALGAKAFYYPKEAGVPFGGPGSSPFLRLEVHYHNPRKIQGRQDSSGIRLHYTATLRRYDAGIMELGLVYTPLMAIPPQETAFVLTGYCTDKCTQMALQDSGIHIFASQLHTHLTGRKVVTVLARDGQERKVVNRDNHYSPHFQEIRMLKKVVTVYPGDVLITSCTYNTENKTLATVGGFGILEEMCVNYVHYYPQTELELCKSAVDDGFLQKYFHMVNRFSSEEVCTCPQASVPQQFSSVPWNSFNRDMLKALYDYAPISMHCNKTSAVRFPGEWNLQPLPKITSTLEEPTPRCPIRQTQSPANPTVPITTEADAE
# [8] = system: DBH; settings: animals; cited from earlier work
# [9] = system: C57BL6/J wild type mice; assay: Elevated plus maze (EPM), cocaine-induced anxiety, wild type C57BL6/J mice; format: in vivo
# Protocol: Behavioral testing The EPM apparatus consisted of two open arms and two enclosed arms arranged in a plus orientation. The arms were elevated 30 inches above the floor, with each arm projecting 12 inches from the center. Because rodents naturally prefer dark, enclosed compartments, a greater willingness to explore the open, well-lit arms is believed to represent a decrease in the animal's anxiety. […]
# In all experiments, cocaine was injected 20 minutes prior to behavioral testing as described by Yang and colleagues (Yang et al., (1992) Pharmacol. Biochem. & Behavior 41: 643-650). […] Videotapes were later scored by an observer who was blind to genotype and treatment group. The measure used for analysis was the percentage of time spent exploring the open arms, which was calculated by dividing the time spent in the open arms by the combined time spent in open and closed arms. […]
# Entry into an arm of the plus maze was defined as the animal placing all four paws in that particular compartment of the apparatus. […] Mice were excluded from data analysis for any of the following reasons: if they jumped or fell off the maze after test had begun, if they had […] a seizure while on the testing apparatus, or if their open arm time was detected as an outlier using Grubb's test. […]
structure (smiles),measurement,setting,value
"S=C(Nc1ccccc1)Nc1nccs1 [U-14,624]",reinstatement of amphetamine self-administration,[1],block
COC(=O)[C@@H]1[C@H]2C[C@H]3c4[nH]c5ccccc5c4CCN3C[C@@H]2CC[C@@H]1O [yohimbine],percent open arm time in EPM after cocaine (cocaine-induced anxiety),[2],preserved; also recorded: did not
same,"percent open time in EPM, antagonist alone",[2],no significant effect
"CCN(CC)C(=S)SSC(=S)N(CC)CC [disulfuram, tetraethylthiuram]","NE and its metabolites in urine, blood, and cerebrospinal fluid",[3],decreases
same,cocaine sensitization,[4],enhances cocaine sensitization
same,locomotor response to acute administration of amphetamine,[4],decreases
same,locomotor response to acute administration of cocaine,[4],decreases
same,percent open arm time in EPM after cocaine,[2],attenuates cocaine-induced anxiety
same,percent open arm time in EPM after cocaine,[2]; listed as Disulfuram,abolished the ability of cocaine to reduce open arm exploration time; also recorded: significantly increased level of open arm exploration
same,"percent open arm time in EPM, saline instead of cocaine","[2]; disulfuram 3x200 mg/kg i.p., saline prior to testing",no effect
same,reinstatement of amphetamine self-administration,[1],attenuates; also recorded: block
same,locomotion induced by cocaine,"[5]; disulfuram via osmotic minipump 50 mg/kg/day for 2 to 3 weeks, cocaine 10 mg/kg, cocaine-naive animals",decreased
same,IC50 for DBH,[6],low micromolar range
same,decrease of NE in the mouse brain,[7],~70%
same,dopamine (DA) in peripheral and central tissues,[8],increase dopamine (DA)
same,norepinepherine (NE) in peripheral and central tissues,[8],decrease norepinepherine (NE)
COc1cc2nc(N3CCN(C(=O)c4ccco4)CC3)nc(N)c2cc1OC [prazosin],percent open arm time in EPM after cocaine (cocaine-induced anxiety),[2],preserved; also recorded: did not
same,"percent open time in EPM, antagonist alone",[2],no significant effect
CC(C)NCC(O)COc1cccc2ccccc12 (stereo not drawn) [propranolol],percent open arm time in EPM after cocaine (cocaine-induced anxiety),[2],abolished; also recorded: differed significantly from the control group; also recorded: attenuates cocaine-induced anxiety
same,"percent open time in EPM, antagonist alone",[2],no significant effect
same,percent open arm time in EPM after cocaine (cocaine-induced anxiety),[9]; propranolol 5 mg/kg i.p. 10 min prior to cocaine 20 mg/kg i.p.,blocked; also recorded: attenuates cocaine-induced anxiety
same,baseline EPM performance,"[9]; propranolol 5 mg/kg i.p., saline instead of cocaine",no effect
"NCc1c[nH]c(=S)n1[C@H]1CCc2c(F)cc(F)cc2C1 [nepicastat, S-5-amino methyl-1-(5,7-difluoro-1,2,3,4-tetrahydronapthalyl)-1,3-dihydroimidazole-2-thione hydrochloride]",locomotion induced by cocaine,"[5]; prolonged (3 weeks) minipump treatment with 10 or 50 mg/kg/day, cocaine 10 mg/kg i.p., FIG. 8",significantly increased
same,cocaine-induced locomotion,"[5]; single acute dose 50 mg/kg i.p., cocaine 20 mg/kg i.p., FIG. 9, hydrochloride",did not significantly affect; also recorded: does not significantly affect
